Test results taken from patent US20070093520A1, “Method of treatment of diarrhea-predominant irritable bowel syndrome in a subject” (priority 2005, published 2007).

System: diarrhea-predominant IBS subjects
Experiment: 3007 Study: open-label 52-week safety study, adverse events and withdrawals
Conditions: C/C group

Cc1nccn1C[C@H]1CCc2c(c3cccc4c3n2CCC4)C1=O [cilansetron, (R)-(−)-4,5,6,8,9,10-hexahydro-10-[(2-methyl-1H-imidazol-1-yl)methyl]-11H-pyrido-[3,2,1-jk]-carbazol-11-one]
TEAE: Abdominal Therapeutic Procedures NEC: 0 n (%)
TEAE: Abdominoplasty: 0 n (%)
TEAE: Abnormal Chest Sounds NOS: 0 n (%)
TEAE: Acne NOS: 1 (<1%) n (%)
TEAE: Acnes: 1 (<1%) n (%)
TEAE: Acquired Hypothyroidism: 1 (<1%) n (%)
TEAE: Acrochordons: 0 n (%)
TEAE: Adenomyosis*: 1 (<1%) n (%)
TEAE: Age Related Issues: 0 n (%)
TEAE: Allergic Conditions NEC: 1 (<1%) n (%)
TEAE: Allergies to Foods, Food Additives, Drugs and Other Chemicals: 1 (<1%) n (%)
TEAE: Allergy to Insect Sting: 0 n (%)
TEAE: Alopecia: 0 n (%)
TEAE: Alopecias: 0 n (%)
TEAE: Amenorrhoea NOS*: 1 (<1%) n (%)
TEAE: Anaemia NOS: 0 n (%)
TEAE: Anaemias NEC: 0 n (%)
TEAE: Angina Pectoris: 3 (1%) n (%)
TEAE: Anorexia: 1 (<1%) n (%)
TEAE: Anxiety: 3 (1%) n (%)
TEAE: Anxiety Aggravated: 2 (<1%) n (%)
TEAE: Anxiety Symptoms: 5 (2%) n (%)
TEAE: Apocrine and Eccrine Gland Disorders: 0 n (%)
TEAE: Appetite Disorders: 1 (<1%) n (%)
TEAE: Arrhythmia NOS: 1 (<1%) n (%)
TEAE: Asthenic Conditions: 8 (3%) n (%)
TEAE: Asthma Aggravated: 1 (<1%) n (%)
TEAE: Asthma NOS: 1 (<1%) n (%)
TEAE: Atopic Disorders: 4 (2%) n (%)
TEAE: Atrial Fibrillation: 1 (<1%) n (%)
TEAE: Atrioventricular Block First Degree: 1 (<1%) n (%)
TEAE: Basal Cell Carcinoma: 2 (<1%) n (%)
TEAE: Behaviour and Socialisation Disturbances: 0 n (%)
TEAE: Benign Ovarian Tumour*: 0 n (%)
TEAE: Biliary Tract Disorder NOS: 0 n (%)
TEAE: Binocular Eye Movement Disorder NOS: 0 n (%)
TEAE: Bladder Disorders NEC: 0 n (%)
TEAE: Bladder Infections and Inflammations: 0 n (%)
TEAE: Bladder Prolapse: 0 n (%)
TEAE: Bladder and Urethral Symptoms: 6 (2%) n (%)
TEAE: Blood and Lymphatic System Disorders: 3 (1%) n (%)
TEAE: Bone Neoplasm Malignant: 1 (<1%) n (%)
TEAE: Bone Neoplasms Malignant (Excl Sarcomas): 1 (<1%) n (%)
TEAE: Bradyarrhythmia: 0 n (%)
TEAE: Breast Calcifications*: 0 n (%)
TEAE: Breast Cancer NOS*: 0 n (%)
TEAE: Breast Disorder NOS*: 0 n (%)
TEAE: Breast Disorders NEC*: 1 (<1%) n (%)
TEAE: Breast Mass NOS*: 1 (<1%) n (%)
TEAE: Breast and Nipple Neoplasms Malignant*: 0 n (%)
TEAE: Breath Sounds Decreased: 1 (<1%) n (%)
TEAE: Breathing Abnormalities: 2 (<1%) n (%)
TEAE: Bronchospasm and Obstruction: 3 (1%) n (%)
TEAE: Bruising, Ecchymosis and Purpura: 1 (<1%) n (%)
TEAE: Bundle Branch Block Right: 1 (<1%) n (%)
TEAE: Calculus Renal NOS: 3 (1%) n (%)
TEAE: Calculus Ureteric: 1 (<1%) n (%)
TEAE: Cardiac Conduction Disorders: 2 (<1%) n (%)
TEAE: Cardiac Disorders: 10 (4%) n (%)
TEAE: Cardiac Fibrillation NOS: 0 n (%)
TEAE: Cardiac Flutter: 0 n (%)
TEAE: Cardiac Signs and Symptoms NEC: 2 (<1%) n (%)
TEAE: Cataract Unilateral: 1 (<1%) n (%)
TEAE: Cataracts (Excl Congenital): 1 (<1%) n (%)
TEAE: Cerumen Impaction: 2 (<1%) n (%)
TEAE: Chest Discomfort: 0 n (%)
TEAE: Chest Pain: 3 (1%) n (%)
TEAE: Chest Tightness: 1 (<1%) n (%)
TEAE: Cholecystitis and Cholelithiasis: 2 (<1%) n (%)
TEAE: Cholelithiasis: 2 (<1%) n (%)
TEAE: Congenital, Familial and Genetic Disorders: 0 n (%)
TEAE: Conjunctival Infections, Irritations and Inflammations: 2 (<1%) n (%)
TEAE: Conjunctivitis: 1 (<1%) n (%)
TEAE: Conjunctivitis Allergic: 1 (<1%) n (%)
TEAE: Contusion: 1 (<1%) n (%)
TEAE: Cough: 5 (2%) n (%)
TEAE: Coughing and Associated Symptoms: 6 (2%) n (%)
TEAE: Cyst NOS: 1 (<1%) n (%)
TEAE: Cystitis Interstitial: 0 n (%)
TEAE: Dacryostenosis Acquired: 1 (<1%) n (%)
TEAE: Deafness NOS: 1 (<1%) n (%)
TEAE: Dehydration: 1 (<1%) n (%)
TEAE: Depression: 4 (2%) n (%)
TEAE: Depression Aggravated: 3 (1%) n (%)
TEAE: Depressive Disorders: 7 (3%) n (%)
TEAE: Dermal and Epidermal Conditions NEC: 1 (<1%) n (%)
TEAE: Dermatitis Allergic: 0 n (%)
TEAE: Dermatitis Ascribed to Specific Agent: 0 n (%)
TEAE: Dermatitis Contact: 1 (<1%) n (%)
TEAE: Dermatitis Medicamentosa: 0 n (%)
TEAE: Dermatitis NOS: 0 n (%)
TEAE: Dermatitis and Eczema: 2 (<1%) n (%)
TEAE: Dermographism: 0 n (%)
TEAE: Diabetes Mellitus (Incl Subtypes): 2 (<1%) n (%)
TEAE: Diabetes Mellitus Aggravated: 1 (<1%) n (%)
TEAE: Diabetes Mellitus Non-Insulin-Dependent: 1 (<1%) n (%)
TEAE: Disturbances in Initiating and Maintaining Sleep: 6 (2%) n (%)
TEAE: Drug Hypersensitivity: 1 (<1%) n (%)
TEAE: Dry Eye NOS: 2 (<1%) n (%)
TEAE: Dysfunctional Uterine Bleeding*: 1 (<1%) n (%)
TEAE: Dyshidrosis: 0 n (%)
TEAE: Dyspnoea NOS: 2 (<1%) n (%)
TEAE: Dysuria: 1 (<1%) n (%)
TEAE: Ear Disorders NEC: 1 (<1%) n (%)
TEAE: Ear Pain: 1 (<1%) n (%)
TEAE: Ear and Labyrinth Disorders: 6 (2%) n (%)
TEAE: Eczema: 1 (<1%) n (%)
TEAE: Elevated Cholesterol: 3 (1%) n (%)
TEAE: Endocrine Disorders: 2 (<1%) n (%)
TEAE: Endometriosis*: 2 (1%) n (%)
TEAE: Erythema: 1 (<1%) n (%)
TEAE: Erythemas: 1 (<1%) n (%)
TEAE: External Ear Disorders NEC: 2 (<1%) n (%)
TEAE: Eye Disorders: 8 (3%) n (%)
TEAE: Fall: 2 (<1%) n (%)
TEAE: Fatigue: 7 (3%) n (%)
TEAE: Fatigue Aggravated: 1 (<1%) n (%)
TEAE: Febrile Disorders: 2 (<1%) n (%)
TEAE: Fibroma NOS: 0 n (%)
TEAE: Fluid Intake Increased: 0 n (%)
TEAE: Fluid in Middle Ear: 1 (<1%) n (%)
TEAE: Flushing: 1 (<1%) n (%)
TEAE: Food Allergy: 0 n (%)
TEAE: General Disorders and Administration Site Conditions: 23 (9%) n (%)
TEAE: General Signs and Symptoms NEC: 6 (2%) n (%)
TEAE: Gilbert's Syndrome: 0 n (%)
TEAE: Glucose Tolerance Impaired: 0 n (%)
TEAE: Glycosuria: 0 n (%)
TEAE: Goitre: 1 (<1%) n (%)
TEAE: Gout: 2 (<1%) n (%)
TEAE: Haematoma NOS: 1 (<1%) n (%)
TEAE: Haematuria: 4 (2%) n (%)
TEAE: Hallucination NOS: 0 n (%)
TEAE: Hallucination, Auditory: 0 n (%)
TEAE: Hand Fracture: 0 n (%)
TEAE: Hearing Losses: 1 (<1%) n (%)
TEAE: Hepatitis NOS: 1 (<1%) n (%)
TEAE: Hepatobiliary Disorders: 4 (2%) n (%)
TEAE: Hepatobiliary Signs and Symptoms: 1 (<1%) n (%)
TEAE: Hepatocellular Damage and Hepatitis NEC: 1 (<1%) n (%)
TEAE: Hepatosplenomegaly NOS: 1 (<1%) n (%)
TEAE: Hernia NOS: 0 n (%)
TEAE: Hernia Repair NOS: 1 (<1%) n (%)
TEAE: Hernia Repairs: 1 (<1%) n (%)
TEAE: Hernias NEC: 0 n (%)
TEAE: Hot Flushes NOS: 1 (<1%) n (%)
TEAE: Hypercholesterolaemia: 3 (1%) n (%)
TEAE: Hyperglycaemia NOS: 0 n (%)
TEAE: Hyperglycaemic Conditions NEC: 0 n (%)
TEAE: Hyperkeratoses: 0 n (%)
TEAE: Hyperkeratosis: 0 n (%)
TEAE: Hyperlipidaemia NOS: 1 (<1%) n (%)
TEAE: Hyperlipidaemias NEC: 1 (<1%) n (%)
TEAE: Hypersensitivity NOS: 1 (<1%) n (%)
TEAE: Hypertension Aggravated: 1 (<1%) n (%)
TEAE: Hypertension NOS: 7 (3%) n (%)
TEAE: Hypotension NOS: 0 n (%)
TEAE: Immune System Disorders: 5 (2%) n (%)
TEAE: Inborn Errors of Bilirubin Metabolism: 0 n (%)
TEAE: Influenza Like Illness: 3 (1%) n (%)
TEAE: Ingrowing Nail: 0 n (%)
TEAE: Inner Ear Disorders NEC: 1 (<1%) n (%)
TEAE: Inner Ear Infections and Inflammations: 2 (<1%) n (%)
TEAE: Inner Ear Signs and Symptoms: 1 (<1%) n (%)
TEAE: Insomnia: 5 (2%) n (%)
TEAE: Insomnia Exacerbated: 1 (<1%) n (%)
TEAE: Intermenstrual Bleeding*: 1 (<1%) n (%)
TEAE: Irritability: 0 n (%)
TEAE: Ischaemic Coronary Artery Disorders: 4 (2%) n (%)
